# In US20240207292A1, “BORONIC ACID COMPOUNDS, COMPOSITIONS AND METHODS” (Trustees of Tufts College, priority 2021, published 2024):
# Like-named read-outs stand apart in the source and are kept apart here. Square brackets hold non-standard residues; d marks the D form. Peptide text beside a SMILES is read from it. * marks the point of attachment. X1 = O=C1CN2CCN3CCN(CC(=O)*)CCN(CC2)CC(=O)O[CH2][Lu]([CH2]CO1)[CH2]COC(=O)C3; boroPro = OB(O)[C@@H]1CCCN1*
# Experiments:
# [1] = Stability of bortezomib with excipients in water, propyleneglycol (PG) or butylene glycol (BG) at 1 mg/mL, 50° C.; type: physicochemical; settings: with N-Acetyl-L-methionine
# Description: In Examples 1-3 below, Tables 1, 2 and 3 summarize the effectiveness of sulfur compounds in stabilizing bortezomib such as against oxidation and decomposition reactions. For each of the following Examples 1-3, the following procedures were used: Samples preparation: 100 mg of the API (active pharmaceutical ingredient) was suspended into 100 mL of water or other ratioed solvents, mixed well by using a vortex mixer and sonicator (with gentle warm if necessary) to make a 1 mg/mL of solution A. 10 mg of each excipient was weighed into avial, and 1 mL of solution A was added, mixed well to give the test solution B (10:1 of excipient/API). Took 100 μL of solution B and diluted into 1 mL with solution A to give the test solution C (1:1 of excipient/API). Took 100 μL of solution C and diluted into 1 mL with solution A to give the test solution D (0.1:1 of excipient/API). For solid powderform of Bortezomib with the excipients, method in US 2005/0282742 A1 was adopted. […]
# Aqueous formulations of bortezomib together with a number of sulfur-containing compounds in varying weight ratios were evaluated for stability over time based on purity of Bortezomib in water, propyleneglycol (PG) or butylene glycol (BG) at 1 mg/mL, 50° C.
# [2] = Solubility in water after lyophilization
# [3] = target: recombinant human fibroblast activation protein (FAP) (Homo sapiens (Human), UniProt Q12884); test: In vitro assay fibroblast activation protein IC50 (Example 21); type: biochemical
# [4] = Degradation in aqueous solution of pH about 3 during HPLC purification and lyophilization; settings: during HPLC purification and subsequent lyophilization
# [5] = target: recombinant human dipeptidyl peptidase IV (DPPIV) (Homo sapiens (Human), UniProt P27487); test: In vitro assay dipeptidyl peptidase IV IC50 (Example 21); type: biochemical
# Description: The purpose of this assay is to determine the IC50 of various inhibitors against recombinant human dipeptidyl peptidase IV (DPPIV), fibroblast activation protein (FAP) or prolyl oligopeptidase (PREP).
# The assays are conducted in the following steps: • 1 Dissolve the compound in DMSO to a final concentration of 100 mM. From this, prepare a 1 mM stock at pH 7.5 in 50 mM Tris, 140 mM NaCl Buffer (FAP)/pH 7.5 in 25 mM Tris, 250 mM NaCl Buffer/[…]. • 2. Serial dilute (1:10) the 1 mM compound stocks prepared previously into the appropriate assay buffer (FAP: 50 mM Tris, 140 mM NaCl, pH 7.5/PREP: 25 mM Tris, 0.25 M NaCl, pH 7.5/DPPIV: 25 mM Tris, pH 8.0) to one row of a 96-well plate. • 3. […] Dilute the enzymes into their appropriate assay buffers. The final enzyme concentrations should be 0.1, 1.2, and 0.6 nM for DPPIV, FAP and PREP respectively. Add 180 μL to each well needed in columns 2-10. Column 1(A,B,C) should be prepared with 200 μl of appropriate assay buffer as control. Column 1(D,E,F,G,H) should be prepared with 20 μl of appropriate assay buffer and 180 ul enzyme as no inhibitor control. • 5. Add 20 μL of the compound of interest from the dilution plate prepared in step 2 to columns 2-10 of the assay plate where appropriate. Each sample should be tested in triplicate. Allow this to incubate for 10 minutes at room temperature, shaking the plate for the first two minutes. • 6. Add 10 μL of 20× substrate prepared in step 3 to each well and allow this to incubate for 15 minutes at room temperature, shaking the plate for the first two minutes. • 7. Read the fluorescence at λex: 380, λem: 460. (DPcore=[dAla|dSer|Gly]-[boroPro|Pro-nitrile], XXaa=alpha-amino acid)
# [6] = target: recombinant human prolyl oligopeptidase (PREP) (Homo sapiens (Human), UniProt P48147); test: In vitro assay prolyl oligopeptidase IC50 (Example 21); type: biochemical
# [7] = physchem; settings: water
# [8] = tested on: HEK-mFAP tumor xenografts
# [9] = tested on: HEK-mFAP tumor xenografts; test: Efficacy and survival study, single injection of [^177Lu]-6522; type: in vivo, Fox Chase SCID mice
# Description: The aim of the study was to assess the therapeutic efficacy of a single injection of [^177Lu]-6522 by evaluation tumor growth delay and median survival.
# [^177Lu]-6522 is provided as described in Example 24 above. The following treatment compositions were prepared: • 1. Vehicle (selected formulation, 100 μL) • 2. Precursor (6522 compound) (80 μL) • 3. [.^77Lu]-6522 15 MBq (80 μL) • 4. [.^77Lu]-6522 30 MBq (80 μL) • 5. [.^77Lu]-6522 60 MBq (80 μL)
# A total of 30 HEK-mFAP tumor-bearing mice were used for the study. […]
# Mouse health checks were performed throughout the study on a weekly basis including body weight measurements. Tumor growth was monitored weekly with caliper measurements (tumor volume=length×width^2×0.5). […]. Mice were housed 5 to a cage with ad libitum access to food and water in 20° C. ambient temperature, 40%-50% humidity, and 12-hour light/12-hour dark cycle.
# The mice were randomized into 5 groups, n=6 mice per group. The treatment compositions (1 through 5 above) were injected IV through the tail vein using a catheter (mounted with a 30 Ga needle). Injected doses were determined using a well counter (Capintec calibration). Tumor growth was monitored weekly with caliper measurements, and the mice were followed for survival.
# Chain of recombinant human prolyl oligopeptidase (PREP) (P48147 whole entry): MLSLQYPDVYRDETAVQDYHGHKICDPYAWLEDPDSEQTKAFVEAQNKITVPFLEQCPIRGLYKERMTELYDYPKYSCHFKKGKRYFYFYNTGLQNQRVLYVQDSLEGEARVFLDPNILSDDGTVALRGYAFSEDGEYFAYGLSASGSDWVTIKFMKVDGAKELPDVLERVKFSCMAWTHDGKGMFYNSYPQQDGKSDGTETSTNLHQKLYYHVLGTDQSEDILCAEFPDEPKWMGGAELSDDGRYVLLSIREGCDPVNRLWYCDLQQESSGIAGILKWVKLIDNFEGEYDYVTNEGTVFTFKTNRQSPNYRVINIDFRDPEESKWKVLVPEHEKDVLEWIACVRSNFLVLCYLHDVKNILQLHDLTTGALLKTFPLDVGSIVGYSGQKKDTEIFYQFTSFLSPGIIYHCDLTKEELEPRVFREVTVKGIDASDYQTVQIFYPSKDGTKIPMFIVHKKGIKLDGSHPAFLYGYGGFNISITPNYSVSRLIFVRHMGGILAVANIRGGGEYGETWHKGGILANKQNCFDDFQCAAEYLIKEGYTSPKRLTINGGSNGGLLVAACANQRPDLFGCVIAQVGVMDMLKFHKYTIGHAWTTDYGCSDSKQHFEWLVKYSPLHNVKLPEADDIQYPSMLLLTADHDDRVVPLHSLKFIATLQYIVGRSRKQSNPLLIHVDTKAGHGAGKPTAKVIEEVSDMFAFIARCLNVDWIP
# Chain of recombinant human dipeptidyl peptidase IV (DPPIV) (P27487 whole entry): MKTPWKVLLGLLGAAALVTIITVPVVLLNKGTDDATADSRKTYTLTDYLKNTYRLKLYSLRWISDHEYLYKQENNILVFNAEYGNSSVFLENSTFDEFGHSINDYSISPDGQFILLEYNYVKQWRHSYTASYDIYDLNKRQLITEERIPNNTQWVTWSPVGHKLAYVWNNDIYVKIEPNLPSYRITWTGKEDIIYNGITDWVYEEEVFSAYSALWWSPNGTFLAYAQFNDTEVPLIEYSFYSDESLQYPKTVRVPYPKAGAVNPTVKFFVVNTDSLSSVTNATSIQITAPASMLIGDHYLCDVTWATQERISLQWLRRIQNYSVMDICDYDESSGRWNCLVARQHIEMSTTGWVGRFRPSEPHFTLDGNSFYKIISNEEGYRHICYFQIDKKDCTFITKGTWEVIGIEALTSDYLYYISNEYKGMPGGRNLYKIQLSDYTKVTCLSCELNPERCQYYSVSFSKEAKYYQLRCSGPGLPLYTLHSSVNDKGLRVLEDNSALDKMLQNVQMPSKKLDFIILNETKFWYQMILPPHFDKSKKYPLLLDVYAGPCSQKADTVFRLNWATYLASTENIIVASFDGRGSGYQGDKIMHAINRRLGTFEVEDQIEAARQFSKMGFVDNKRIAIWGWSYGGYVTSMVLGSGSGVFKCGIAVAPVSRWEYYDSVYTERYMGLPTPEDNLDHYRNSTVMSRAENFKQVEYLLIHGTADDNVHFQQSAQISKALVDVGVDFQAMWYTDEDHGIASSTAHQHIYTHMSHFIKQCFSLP
# Chain of recombinant human fibroblast activation protein (FAP) (Q12884 whole entry): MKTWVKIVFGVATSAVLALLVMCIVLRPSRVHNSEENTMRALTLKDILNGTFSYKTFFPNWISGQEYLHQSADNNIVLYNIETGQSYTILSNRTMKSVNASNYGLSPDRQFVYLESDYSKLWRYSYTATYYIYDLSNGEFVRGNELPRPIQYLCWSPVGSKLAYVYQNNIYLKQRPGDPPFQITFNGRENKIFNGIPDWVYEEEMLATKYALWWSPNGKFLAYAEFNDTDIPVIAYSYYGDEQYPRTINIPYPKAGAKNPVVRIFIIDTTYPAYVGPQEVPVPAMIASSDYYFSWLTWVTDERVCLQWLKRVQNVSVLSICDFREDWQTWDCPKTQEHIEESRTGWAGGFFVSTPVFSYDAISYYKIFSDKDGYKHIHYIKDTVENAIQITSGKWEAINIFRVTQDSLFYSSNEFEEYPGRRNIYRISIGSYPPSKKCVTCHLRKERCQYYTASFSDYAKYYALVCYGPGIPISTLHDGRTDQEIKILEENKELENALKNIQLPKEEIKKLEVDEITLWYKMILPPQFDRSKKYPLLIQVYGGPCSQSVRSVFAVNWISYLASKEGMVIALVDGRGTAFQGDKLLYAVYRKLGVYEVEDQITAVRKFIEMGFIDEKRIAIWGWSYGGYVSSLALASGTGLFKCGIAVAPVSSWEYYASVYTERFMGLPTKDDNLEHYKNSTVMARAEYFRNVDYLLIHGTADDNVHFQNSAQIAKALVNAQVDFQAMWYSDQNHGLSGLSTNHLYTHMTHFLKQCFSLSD
compound,measurement,setting,value
"CSCC[C@H](NC(C)=O)C(=O)O [N-Acetyl-L-methionine, N-acetyl-L-methionine]",protection of bortezomib,[1],essentially complete protection
C[C@@H](NC(=O)c1ccc(CNC(=O)CN2CCN3CCN4CCN(CC2)CC(=O)[O][Lu]([O]C(=O)C3)[O]C(=O)C4)cc1)C(=O)N1CCC[C@H]1B(O)O [6555LU],solubility in water,[2],> 50 mg/mL
same,IC50,[3],0.014 µM
same,degradation in aqueous solution,[4],did not observe any sign of degradation
same,IC50,[5],> 100 µM
same,IC50,[6],3.4 µM
C[C@@H](NC(=O)[C@H]1CC[C@H](CNC(=O)CN2CCN(CC(=O)O)CCN(CC(=O)O)CCN(CC(=O)O)CC2)CC1)C(=O)N1CCC[C@H]1B(O)O [compound 6952],IC50,"[3]; Z-Gly-Pro-AMC, 1.2 nM enzyme",0.0047 µM
same,degradation in aqueous solution,[4],did not observe any sign of degradation
same,IC50,"[5]; Gly-Pro-AMC, 0.1 nM enzyme",> 100 µM
same,IC50,"[6]; Z-Gly-Pro-AMC, 0.6 nM enzyme",4.6 µM
same,solubility,[7],> 50 mg/mL
CC(C)[C@H](NC(=O)CNC(=O)CNC(=O)CN1CCN2CCN3CCN(CC1)CC(=O)O[CH2][Lu]([CH2]COC(=O)C2)[CH2]COC(=O)C3)C(=O)N[C@H](C)C(=O)N1CCC[C@H]1B(O)O [[^177Lu]-6522] (X1-GGV[dA]-boroPro),kidneys uptake,"[8]; 4 h p.i., IV",2.35 ± 0.51 % ID/g
same,tumor uptake,"[8]; 4 h p.i., IV, HEK-mFAP tumor-bearing mice",33.04 ± 5.29 % ID/g
same,"Blood uptake, Mean (% ID/g)","[8]; 4 h p.i., IV",0.3063 % ID/g
same,"Blood uptake, Mean (% ID/g)","[8]; 24 h p.i., IV",0.0085 % ID/g
same,"Blood uptake, Mean (% ID/g)","[8]; 48 h p.i., IV",0.0029 % ID/g
same,"Blood uptake, Mean (% ID/g)","[8]; 168 h p.i., IV",0.0015 % ID/g
same,"Bone uptake, Mean (% ID/g)","[8]; 4 h p.i., IV",1.8037 % ID/g
same,"Bone uptake, Mean (% ID/g)","[8]; 24 h p.i., IV",0.2658 % ID/g
same,"Bone uptake, Mean (% ID/g)","[8]; 48 h p.i., IV",0.4106 % ID/g
same,"Bone uptake, Mean (% ID/g)","[8]; 168 h p.i., IV",0.3959 % ID/g
same,"Brain uptake, Mean (% ID/g)","[8]; 4 h p.i., IV",0.0281 % ID/g
same,"Brain uptake, Mean (% ID/g)","[8]; 24 h p.i., IV",0.0036 % ID/g
same,"Brain uptake, Mean (% ID/g)","[8]; 48 h p.i., IV",0.0033 % ID/g
same,"Brain uptake, Mean (% ID/g)","[8]; 168 h p.i., IV",0.0020 % ID/g
same,"Heart uptake, Mean (% ID/g)","[8]; 4 h p.i., IV",0.1528 % ID/g
same,"Heart uptake, Mean (% ID/g)","[8]; 24 h p.i., IV",0.0332 % ID/g
same,"Heart uptake, Mean (% ID/g)","[8]; 48 h p.i., IV",0.0311 % ID/g
same,"Heart uptake, Mean (% ID/g)","[8]; 168 h p.i., IV",0.0256 % ID/g
same,"Kidneys uptake, Mean (% ID/g)","[8]; 4 h p.i., IV",2.3525 % ID/g
same,"Kidneys uptake, Mean (% ID/g)","[8]; 24 h p.i., IV",0.9585 % ID/g
same,"Kidneys uptake, Mean (% ID/g)","[8]; 48 h p.i., IV",0.5318 % ID/g
same,"Kidneys uptake, Mean (% ID/g)","[8]; 168 h p.i., IV",0.1670 % ID/g
same,"Liver uptake, Mean (% ID/g)","[8]; 4 h p.i., IV",0.3774 % ID/g
same,"Liver uptake, Mean (% ID/g)","[8]; 24 h p.i., IV",0.1585 % ID/g
same,"Liver uptake, Mean (% ID/g)","[8]; 48 h p.i., IV",0.1237 % ID/g
same,"Liver uptake, Mean (% ID/g)","[8]; 168 h p.i., IV",0.0725 % ID/g
same,"Lung uptake, Mean (% ID/g)","[8]; 4 h p.i., IV",0.3331 % ID/g
same,"Lung uptake, Mean (% ID/g)","[8]; 24 h p.i., IV",0.0306 % ID/g
same,"Lung uptake, Mean (% ID/g)","[8]; 48 h p.i., IV",0.0312 % ID/g
same,"Lung uptake, Mean (% ID/g)","[8]; 168 h p.i., IV",0.0257 % ID/g
same,"Muscle uptake, Mean (% ID/g)","[8]; 4 h p.i., IV",0.4649 % ID/g
same,"Muscle uptake, Mean (% ID/g)","[8]; 24 h p.i., IV",0.0315 % ID/g
same,"Muscle uptake, Mean (% ID/g)","[8]; 48 h p.i., IV",0.0518 % ID/g
same,"Muscle uptake, Mean (% ID/g)","[8]; 168 h p.i., IV",0.0604 % ID/g
same,"Pancreas uptake, Mean (% ID/g)","[8]; 4 h p.i., IV",0.2167 % ID/g
same,"Pancreas uptake, Mean (% ID/g)","[8]; 24 h p.i., IV",0.0347 % ID/g
same,"Pancreas uptake, Mean (% ID/g)","[8]; 48 h p.i., IV",0.0275 % ID/g
same,"Pancreas uptake, Mean (% ID/g)","[8]; 168 h p.i., IV",0.0197 % ID/g
same,"Skin uptake, Mean (% ID/g)","[8]; 4 h p.i., IV",0.9769 % ID/g
same,"Skin uptake, Mean (% ID/g)","[8]; 24 h p.i., IV",0.1158 % ID/g
same,"Skin uptake, Mean (% ID/g)","[8]; 48 h p.i., IV",0.0906 % ID/g
same,"Skin uptake, Mean (% ID/g)","[8]; 168 h p.i., IV",0.0837 % ID/g
same,"Small intestine uptake, Mean (% ID/g)","[8]; 4 h p.i., IV",0.2091 % ID/g
same,"Small intestine uptake, Mean (% ID/g)","[8]; 24 h p.i., IV",0.0580 % ID/g
same,"Small intestine uptake, Mean (% ID/g)","[8]; 48 h p.i., IV",0.0499 % ID/g
same,"Small intestine uptake, Mean (% ID/g)","[8]; 168 h p.i., IV",0.0277 % ID/g
same,"Spleen uptake, Mean (% ID/g)","[8]; 4 h p.i., IV",0.2587 % ID/g
same,"Spleen uptake, Mean (% ID/g)","[8]; 24 h p.i., IV",0.1418 % ID/g
same,"Spleen uptake, Mean (% ID/g)","[8]; 48 h p.i., IV",0.1340 % ID/g
same,"Spleen uptake, Mean (% ID/g)","[8]; 168 h p.i., IV",0.1437 % ID/g
same,"Stomach uptake, Mean (% ID/g)","[8]; 4 h p.i., IV",0.1706 % ID/g
same,"Stomach uptake, Mean (% ID/g)","[8]; 24 h p.i., IV",0.0528 % ID/g
same,"Stomach uptake, Mean (% ID/g)","[8]; 48 h p.i., IV",0.0331 % ID/g
same,"Stomach uptake, Mean (% ID/g)","[8]; 168 h p.i., IV",0.0210 % ID/g
same,"Tumor uptake, Mean (% ID/g)","[8]; 4 h p.i., IV",33.0435 % ID/g
same,"Tumor uptake, Mean (% ID/g)","[8]; 24 h p.i., IV",12.9944 % ID/g
same,"Tumor uptake, Mean (% ID/g)","[8]; 48 h p.i., IV",7.6749 % ID/g
same,"Tumor uptake, Mean (% ID/g)","[8]; 168 h p.i., IV",3.9910 % ID/g
same,kidneys uptake,"[8]; day 7 p.i., IV",0.17 ± 0.02 % ID/g
same,localization in tumor and normal tissue,[8]; up to 168 h p.i.,high localization in tumor xenografts and low normal tissue uptake
same,survival benefit,[9]; 15 and 30 MBq groups,did not translate in a survival benefit
same,tumor growth delay,[9]; 15 and 30 MBq groups,tumor growth delay was observed
same,survival benefit compared to the vehicle or precursor group,[9]; 60 MBq single IV injection,statically significant survival benefit
